Measurements from patent US20240285627A1, “DRUG COMBINATION OF FAK INHIBITOR AND IMMUNOGENIC CELL DEATH INDUCER AND USE THEREOF” (INXMED (NANJING) CO., LTD., priority 2022, published 2024).

Assays:
Assay type in all cases: cell-based
[1] = system: Mouse colon cancer CT26 cells; experiment: Induction of immunogenic cell death targets by Crizotinib and IN10018 in CT26 cells (Example 7); conditions: CT26, 48 hours; IN10018 5 μM, Crizotinib 3 μM
Description: CT26 cells were cultured in monolayer in vitro, and the culture conditions were: RPMI-1640 medium with 10% fetal bovine serum, 37° C. and 5% CO2. Trypsin was used for routine digestion and passage treatment two or three times a week. When the cells were in exponential growth period and the adherent confluence reached 80%-90%, the cells were collected and plated.
CT26 cells were digested with trypsin, then collected and counted. According to the counting results, the cells were diluted with RPMI-1640+10% FBS, and the dilution concentration was 50,000 cells per ml. Then, the cells were plated on 24-well culture plates, and 1 ml of cell suspension (50,000 cells) was laid in each well. After plating, the cells were cultured in 37° C. and 5% CO2 incubator. […]
After the cells were washed twice with flow buffer (DPBS+2% FBS), the cells in each group were divided into two parts on average, one of which was added with 0.5 μl of AF647 anti-Calreticulin antibody in each well, then mixed well, and incubated in the dark for 20 minutes at 4° C. […] The cells were cultured at room temperature in the dark for 15 minutes, and then analyzed by flow cytometry.
Data analysis: After the assay, the cell positive rate was analyzed by Flowjo(V10) software.

[2] = system: Mouse colon cancer CT26 cells; experiment: Proliferation of CT26 cells, CCK8, Lurbinectedin with or without IN10018 (Example 1); conditions: 72 hours, combination group: 6 μM IN10018 added to each well
Description: Mouse colon cancer CT26 cells (Insitute of Biochemistry and Cell Biology) were cultured with RPMI-1640 (Shanghai Basalmedia, classification number: L210KJ, batch number: F210916)+10% FBS (Gibco, classification number: 10099-141c, batch number: 2158737cp) and passaged twice. When the cells were in good condition, the culture solution was placed in a 96-well plate with 3000 cells/well. After the cells were spread for 24 hours, a culture medium containing Lurbinectedin (DC chemicals, classification number: DC12502, batch number: DC1250203) was added. 10 drug action concentrations were set, wherein the first concentration was 0.1 μM, which was serially diluted 4 times, and the last concentration was a control with a drug concentration of 0. Each drug concentration was set in triplicate. At the same time, another group of cells was established with the same drug concentration as the above method. The difference was that 6 μM IN10018 was added to each well. The drugs were mixed and the mixture was cultured in a 5% CO2 incubator at 37° C. for 72 hours.
After 72 hours of drug action, the cells were observed under a microscope, and 10 μl of CCK8 detection reagent (Cellorlab, classification number: CX001M, batch number: 2571100) was added to each well. […] Then the plate was read with a microplate reader OD450 ([…]).

[3] = system: Mouse colon cancer CT26 cells; experiment: CT26 cells with IN10018 and Lurbinectedin: microscope and flow cytometry for CRT / Annexin V (Example 2); conditions: CT26, 48 hours; IN10018 5 μM, Lurbinectedin 0.00142 μM
Description: Mouse colon cancer CT26 cells (Insitute of Biochemistry and Cell Biology) were cultured with RPMI-1640 (Shanghai Basalmedia, classification number: L210KJ, batch number: F210916)+10% FBS (Gibco, classification number: 10099-141c, batch number: 2158737cp) and passaged twice. When the cells were in good condition, the culture solution was placed in a 24-well plate. After the cells were spread for 24 hours, four groups were set up, wherein the first group was a control group, and the culture medium was added; the second group was IN10018 with a concentration of 5 μM; the third group was Lurbinectedin (DC chemicals, classification number: DC12502, batch number: DC1250203) with a concentration of 0.00142 μM; and the fourth group was IN10018 (5 μM) combined with Lurbinectedin (0.00142 μM). The drugs were mixed and the mixture was cultured in a 5% CO2 incubator at 37° C. for 48 hours.
After 48 hours of drug action, the cells were observed under a microscope and photographed, and the photos were kept. Then the cells were collected, subjected to flow analysis, and washed twice with flow buffer (PBS+2% FBS). 0.5 μl of AF647 anti-Calreticulin antibody (abcam, classification number: ab196159, batch number: CR33676773) was added to each well and fully mixed. […] The mixture was cultured at room temperature in the dark for 15 minutes, and then analyzed by flow cytometry.

Structure (SMILES) | cell state under a microscope (cell death; cell viability) [1] | IC50 [2] | cell state under a microscope [3]
C[C@@H](Oc1cc(-c2cnn(C3CCNCC3)c2)cnc1N)c1c(Cl)ccc(F)c1Cl [Crizotinib] | cell death was obvious |  | 
COc1ccc2[nH]c3c(c2c1)CCN[C@]31CS[C@@H]2c3c(OC(C)=O)c(C)c4c(c3[C@H](COC1=O)N1[C@@H]2[C@H]2c3c(cc(C)c(OC)c3O)C[C@@H]([C@@H]1O)N2C)OCO4 [Lurbinectedin] |  | 710 pM | poor
